Test results taken from patent publication US20080004290A1, “Anti-Cancer Agents” (THE UNIVERSITY OF QUEENSLAND, priority 2003, published 2008).
Read-outs that look alike come from different tables or passages of the source. One block for each compound: values may come before it.

Assays:
[1] = tested on: NFF, neonatal foreskin fibroblasts; assay: Cell survival assay (clonogenic survival, SRB), normal cells; type: cell-based, human
Summary of the method: (§1)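 Cells (5×10^3/well, RPMI 1640 with 10% FCS) treated 24 h with compound at 0.01-10 μg/mL, then washed and grown 72 h drug-free at 37 °C, 5% CO2. Survival read by SRB staining after methylated-spirit fixation, absorbance 564 nm.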

[2] = tested on: MM96L melanoma cells; assay: Cell survival assay (clonogenic survival, SRB); type: cell-based, human
Summary of the method: as §1

[3] = tested on: DO4 melanoma cells; assay: Cell survival assay (SRB); type: cell-based, human
Summary of the method: (§2)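 Following overnight adherence, cells are treated with test compounds for 24 hours, then washed free of drug and cultured 72 hours longer. Survival is quantified by sulforhodamine B protein staining read at 564 nm.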

[4] = tested on: SkMel28 melanoma cells; assay: Cell survival assay (SRB); type: cell-based, human
Summary of the method: as §2

[5] = tested on: A2058 cells; assay: Cell survival assay (SRB); type: cell-based, human
Method: (§3) Cell Lines and Culture Medium. All cell lines used in this study have been described previously (Parsons et al., 1986; Todaro et al., 1980; Glenn et al., 2004). All cell lines were cultured in 10% heat-inactivated foetal calf serum (CSL, Australia) in RPMI 1640 medium supplemented with 100 U/mL penicillin, 100 μg/mL streptomycin, and 3 mM HEPES at 5% CO2, 99% humidity at 37° C. Primary human fibroblasts were obtained from neonatal foreskins and cultured in the above medium. Routine mycoplasma tests were performed using Hoechst stain^i and were always negative.
(§4) Cell Survival Assay. Cells were plated into 96-well microtitre plates at 5×10^3 cells/well, and allowed to adhere overnight. Test compounds were added to culture medium at the indicated concentrations, and plates incubated in the above conditions for 24 hours. Following this incubation period, compounds and media were removed, and replaced with fresh culture medium. Cells were then grown for a further 72 hours before assay using sulforhodamine B (SRB; Sigma, St. Louis, Mo.) as previously described. Briefly, the culture medium was removed from the 96-well microtitre plates and the plates washed twice with phosphate buffered saline (PBS), before the cells were fixed with methylated spirits for 15 minutes. The plates were then rinsed with tap water and the fixed cells stained with 50 μL/well of SRB solution (0.4% sulforhodamine B (w/v) in 1% (v/v) acetic acid) over a period of 1 hour. The SRB solution was then removed from the wells and the plates rapidly washed two times with 1% (v/v) acetic acid. Protein bound dye was then solubilised with the addition of 100 μL of 10 mM unbuffered Tris, and incubated for 15 min at 25° C. Plates were then read at 564 nm on a VERSA max tunable microplate reader (Molecular Devices, Sunnyvale, Calif.).

[6] = tested on: AF-6 cells; assay: Cell survival assay (SRB); type: cell-based, human
Method: as §3, §4

[7] = tested on: AO7 RM cells; assay: Cell survival assay (SRB); type: cell-based, human
Method: as §3, §4

[8] = tested on: D11 melanoma cells; assay: Cell survival assay (SRB); type: cell-based, human
Method: as §3, §4

[9] = tested on: D14 melanoma cells; assay: Cell survival assay (SRB); type: cell-based, human
Method: as §3, §4

[10] = tested on: D17 melanoma cells; assay: Cell survival assay (SRB); type: cell-based, human
Method: as §3, §4

[11] = tested on: HeLa cells; assay: Cell survival assay (SRB); type: cell-based, human
Method: as §3, §4

[12] = tested on: LSP M2 cells; assay: Cell survival assay (SRB); type: cell-based, human
Method: as §3, §4

[13] = tested on: MM229 melanoma cells; assay: Cell survival assay (SRB); type: cell-based, human
Method: as §3, §4

[14] = tested on: MM329 melanoma cells; assay: Cell survival assay (SRB); type: cell-based, human
Method: as §3, §4

[15] = tested on: MM470 melanoma cells; assay: Cell survival assay (SRB); type: cell-based, human
Method: as §3, §4

[16] = tested on: MM604 melanoma cells; assay: Cell survival assay (SRB); type: cell-based, human
Method: as §3, §4

[17] = tested on: Mel FH melanoma cells; assay: Cell survival assay (SRB); type: cell-based, human
Method: as §3, §4

[18] = tested on: Mel RM melanoma cells; assay: Cell survival assay (SRB); type: cell-based, human
Method: as §3, §4

[19] = tested on: CI-80-13S ovarian cancer cells; assay: Cell survival assay (SRB); type: cell-based, human; details: Table 10; standard deviations in parentheses; read-out: Cell line IC50 (μM) C18013S
Summary of the method: as §2

[20] = tested on: DU145 prostate cancer cells; assay: Cell survival assay (SRB); type: cell-based, human; details: Table 10; standard deviations in parentheses; read-out: Cell line IC50 (μM) DU145
Summary of the method: as §2

[21] = tested on: JAM ovarian cancer cells; assay: Cell survival assay (SRB); type: cell-based, human; details: Table 10; standard deviations in parentheses; read-out: Cell line IC50 (μM) JAM
Summary of the method: as §2

[22] = tested on: MCF-7 breast cancer cells; assay: Cell survival assay (SRB); type: cell-based, human; details: Table 10; standard deviations in parentheses; read-out: Cell line IC50 (μM) MCF7
Summary of the method: as §2

[23] = tested on: p21^WAF1/Cip1 (CDKN1A); assay: Induction of p21 expression (semi-quantitative RT-PCR) in MM96L cells; type: cell-based, human; details: MM96L melanoma cells, 10 μg/ml, after 16 hrs treatment
Text: Induction of p21 Expression. It has been postulated that histone acetylation is associated with activation of gene transcription. […] Possibly the best characterised gene to be induced following exposure to different HDAC inhibitors is that of the cyclin-dependent kinase inhibitor p21^WAF1/Cip1, which blocks cyclin-dependent kinase activity thereby causing cell-cycle arrest in G1. HDAC inhibitors are thought to act directly on the CDKN1A promoter rather than an upstream target. The HDAC inhibitor SAHA induces accumulation of acetylated histones in the chromatin associated with the CDKN1A gene, and this correlates with the observed increase in transcription. […]
Cell Treatment and Total RNA Isolation. […] RNA was analysed for sufficient quality by formamide agarose gel electrophoresis, and quantified by spectrophotometry.
p21 Expression. The semi-quantitative analysis of mRNA expression of p21^WAF1/Cip1 was carried out by RT-PCR. […] Products were analysed by agarose gel electrophoresis, and visualised on a UV light box. Product intensity was determined to increase linearly with number of cycles and amount of mRNA used, by densitometric analysis using ImageQuaNT 4.2 software (Molecular Dynamics, Sunnyvale, Calif.). Quantitation of p21^WAF1/Cip1 induction was also performed by densitometric analysis using ImageQuaNT 4.2 software following normalisation to GAPDH product intensity.

[24] = Oral bioavailability, plasma concentration after oral and intravenous administration; type: in vivo, Wistar rats; details: 5 mg/kg in 4:1 olive oil:DMSO, three rats starved prior to dosing
Method: FIG. 7. Oral Bioavailability. Time dependent plasma concentration of compound of example 24 after oral (top) and intravenous (bottom) administration at 5 mg/kg to each of three Wistar rats.
Compounds of the invention were examined to see whether this new series had the expected favorable properties for oral delivery. […] Compound 24 (Log D7.0 2.7) was administered intravenously and orally to rats. […] Neither vehicle nor fasting had any significant effects on these parameters.

[25] = Table 11, IC50 (NFF)/IC50(cancer cell line)
[26] = Homo sapiens, Table 11, antiproliferative potency

SMILES: CN(C)c1ccc(C(=O)N[C@@H](CCCCCC(=O)NO)C(=O)NCc2ccccc2)cc1 (racemic) [Example 124]
IC50 ([1]; Homo sapiens, Fibroblast, NFF normal fibroblasts, 24 h with compound, further 72 h growth, SRB, read-out: IC50 (uM) NFF): 0.87 ± 0.07 µM | IC50 ([1]; Homo sapiens, Fibroblast, Table 11, antiproliferative potency, read-out: IC50 (μM) NFF): 0.87 ± 0.07 µM | IC50 ([2]; Homo sapiens, MM96L, MM96L melanoma, 24 h with compound, further 72 h growth, SRB, read-out: IC50 (uM) MM96L): 0.13 ± 0.02 µM | IC50 ([2]; Homo sapiens, MM96L, Table 11, antiproliferative potency, read-out: IC50 (μM) MM96L): 0.13 ± 0.02 µM | IC50 ([2]; Homo sapiens, MM96L, most preferred compounds, exemplary examples, read-out: potency of IC50 against the MM96 melanoma cells): ≤ 0.5 µM | SI (Selectivity Index = IC50 (NFF)/IC50 (MM96L)) ([2]; NFF vs MM96L): 6.7 | Selectivity MM96L [2, 25]: 6.7 | IC50 ([3]; Homo sapiens, DO4, Table 11, antiproliferative potency, read-out: IC50 (μM) DO4): 0.12 ± 0.03 µM | Selectivity DO4 [3, 25]: 7 | IC50 ([4]; Homo sapiens, SK-MEL-28, Table 11, antiproliferative potency, read-out: IC50 (μM) SK Mel 28): 0.06 ± 0.04 µM | Selectivity SK Mel 28 [4, 25]: 15 | IC50 ([5]; Homo sapiens, A2058, Table 11, antiproliferative potency): 0.1 ± 0.02 µM | Selectivity A2058 [5, 25]: 9 | IC50 [6, 26]: 0.3 ± 0.03 µM | Selectivity AF-6 [6, 25]: 3 | IC50 [7, 26]: 0.18 ± 0.07 µM | Selectivity AO7 RM [7, 25]: 5 | IC50 [8, 26]: 0.3 ± 0.2 µM | Selectivity D11 [8, 25]: 3 | IC50 [9, 26]: 0.26 ± 0.08 µM | Selectivity D14 [9, 25]: 3 | IC50 ([10]; Homo sapiens, D17, Table 11, antiproliferative potency): 0.06 ± 0.02 µM | Selectivity D17 [10, 25]: 15 | IC50 [11, 26]: 0.09 ± 0.01 µM | Selectivity HeLa [11, 25]: 10 | IC50 [12, 26]: 0.45 ± 0.05 µM | Selectivity LSP M2 [12, 25]: 2 | IC50 [13, 26]: 0.6 ± 0.08 µM | Selectivity MM229 [13, 25]: 1.5 | IC50 [14, 26]: 0.06 ± 0.04 µM | Selectivity MM329 [14, 25]: 15 | IC50 [15, 26]: 0.09 ± 0.07 µM | Selectivity MM470 [15, 25]: 10 | IC50 [16, 26]: 0.01 ± 0.01 µM | Selectivity MM604 [16, 25]: 87 | IC50 [17, 26]: 0.08 ± 0.04 µM | Selectivity Mel FH [17, 25]: 11 | IC50 [18, 26]: 0.95 ± 0.07 µM | Selectivity Mel RM [18, 25]: 0.9

Tmax [24]: ~15 min | time for which high serum levels of drug were maintained [24]: > 4 h | Cmax ([24]; serum, preliminary study): ~6 µg/mL
SMILES: O=C(CCCSC[C@H](NC(=O)c1ccc(Br)cc1)C(=O)NCc1ccccc1)NO [Example 24]
IC50 ([1]; Table 10, standard deviations in parentheses, read-out: Cell line IC50 (μM) NFF): 0.83 µM | IC50 ([2]; Table 10, standard deviations in parentheses, read-out: Cell line IC50 (μM) MM96L): 0.2 µM | IC50 [19]: 1.5 µM | IC50 ([3]; Table 10, standard deviations in parentheses, read-out: Cell line IC50 (μM) DO4): 3.5 µM | IC50 [20]: 3.8 µM | IC50 [21]: 2 µM | IC50 [22]: 1.16 µM | IC50 ([4]; Table 10, standard deviations in parentheses, read-out: Cell line IC50 (μM) SkMel): 5.7 µM | Induction of mRNA for p21^WAF1/Cip1 [23]: Induction of mRNA for p21^WAF1/Cip1 was seen
